Our source for the IC50, DNA binding mode and dissociation rate constant values is patent publication US6440971B1, “Binuclear complex” (A+ Science Invest AB, priority 1997, dated 2002).

One assay has as its system LAMA. Put plainly: growth inhibition of tumour cell lines. The note with it: read-out: half maximum growth inhibitory concentration (IC50), Δ,Δ-enantiomers of (I)-(IV), Δ-enantiomer of (V).
The next assay relates to SUDHL 1. Kind of assay: growth inhibition of tumour cell lines. The note with it: read-out: half maximum growth inhibitory concentration (IC50), Δ,Δ-enantiomers of (I)-(IV), Δ-enantiomer of (V).
A further assay deals with Lung carcinoma HBT182. Put plainly: growth inhibition of tumour cell lines. The note with it: read-out: half maximum growth inhibitory concentration (IC50), Δ,Δ-enantiomers of (I)-(IV), Δ-enantiomer of (V).
The subject of another assay is DNA. Kind of assay: linear dichroism of complex bound to DNA. It is filed as binding. The note with it: 10 mM and 200 mM aqueous NaCl, [Ru]=5 μM, P/Ru=30; negative signals at 380 and 470 nm. An excerpt: The properties of the Δ,Δ enantiomer of (I) regarding DNA binding was then studied.
The amplitude of the negative signals 380 and 470 nm indicate bis-intercalation of the complex (Lincoln, P. et al. JACS 118 (1996) 2644).

A further assay deals with calf thymus DNA. Kind of assay: sodium dodecylsulphate-driven dissociation of the DNA complex. It is filed as binding. Conditions: [NaCl]=159 mM. Here is the method: While the association reaction is relatively insensitive to the ionic strength of the solution, the dissociation is much faster at physiological salt concentrations, however, the rate constant is still only 0.008 S^−1 at [NaCl]=159 mM.

As to “μ-[N,N′-bi (12-cyano-12,13-dihydro-11H-cyclopentadipyrido[b:3,2-h:7′,3′-j]phenazine-12-carbonyl)-1,2-diaminoethane N^4,N^5,N^4′,N^5′]-tetra(2,2′-bipyridine N^1,N^1′)-diruthenium(4+)-tetrachloride [(IV)]”, the IC50 in the assay on LAMA was found to be 16 µM; with SUDHL 1, 22 µM; with Lung carcinoma HBT182 it was 10 µM.

On to `[Cl-].[Cl-].[Ru+2].c1ccc2nc3c4cccnc4c4ncccc4c3nc2c1.c1cnc2c(c1)ccc1cccnc12.c1cnc2c(c1)ccc1cccnc12` [(V), reference compound], for which the IC50 in the assay on LAMA was determined as 43 µM; with SUDHL 1 it was 39 µM; in the assay on Lung carcinoma HBT182 it was 38 µM.

On to “μ-[N,N′-bis(12-cyano-12,13-dihydro-11H-cyclopentadipyrido[b:3,2-h:2′,3′-j]phenazine-12-carbonyl)-1,4-diaminobutane-N^4,N^5,N′^4,N′^5]-tetra (1,10-phenanthroline N^1,N^10) diruthenium(4+) -tetra-chloride [(I)]”, for which, in the assay on DNA, the DNA binding mode result is recorded as “bis-intercalation”. Further, the IC50 in the assay with LAMA amounted to 8 µM; in the assay with SUDHL 1, 14 µM; with Lung carcinoma HBT182 it was 9 µM. The same molecule had a dissociation rate constant in the assay with calf thymus DNA of 0.008 S^−1.

Turning to “Δ,Δμ-[N,N′-bis(12-cyano-12,13-dihydro-11H-cyclopentadipyrido[b:3,2-h:2′,3′-j]phenazine-12-carbonyl)-1,4-diaminobutane N^4N^5,N^4,N^5′]-tetra(2,2′-bipyridine N^1,N^1′)diruthenium(4+)-tetrachloride [(II)]”, the figures for the IC50 with LAMA, in the assay on SUDHL 1 and in the assay with Lung carcinoma HBT182 were 9 µM, 12 µM and 8 µM, respectively.

As to “μ-[N,N′-bis(12-cyano-12,3-dihydro-11H-cyclopentadipyrido[b:3,2-h:2′,3′-j]phenazine-12-carbonyl)-1,2-diaminoethane N^4,N^5,N^4′,N^5′]-tetra(1,10-phenanthroline N^1,N^10)-diruthenium(4+)-tetrachloride [(III)]”, the values for the IC50 in the assay on LAMA, with SUDHL 1 and with Lung carcinoma HBT182 were 12 µM, 14 µM and 19 µM, respectively.
